From patent US20080166323A1, “Activators of Hexosamine Biosynthesis as Inhibitors of Injury Induced by Ischemia or Hermorrhagic Shock” (UAB RESEARCH FOUNDATION, priority 2004, published 2008)

Key:
[1] = tested on: rat model of trauma-hemorrhage and resuscitation; experiment: soft tissue trauma-hemorrhage (T-H) and resuscitation, Example 1 (glucosamine before hemorrhage and during resuscitation); format: in vivo
Experimental: The following experiments were conducted using a model of soft tissue trauma-hemorrhage (T-H) as described in Ba, et al., Crit. Care Med (2000) 28(8):2837-2842; Chaudry, et al., Can J Physiol Pharmacol (1975) 53(5):859-865; Ma, et al., Am J Physiol Gastrointest Liver Physiol (2003) 284(1):G107-G115; and Harkema and Chaudry, Crit. Care Med (1992) 20(2):263-275. Male rats were fasted for 16 h and divided into three groups: (1) sham (trauma only); (2) T-H (trauma with subsequent hemorrhage and resuscitation); and (3) G-T-H (trauma with subsequent hemorrhage and resuscitation in the presence of glucosamine). All groups underwent a 5 cm ventral midline laparotomy to induce soft-tissue trauma and were cannulated in both femoral arteries and the right femoral vein. The T-H and G-T-H groups received an infusion of 3 mls over 30 minutes of Ringer's lactate (RL) containing, in the G-T-H group only, 10 mM glucosamine. These two groups were then bled to a mean arterial pressure of 40 mm Hg within 10 minutes and maintained at that pressure for 80 minutes. The T-H group was then infused with 1 ml RL over 10 minutes, while in the G-T-H group the infusate contained an iso-osmotic solution of 75 mM glucosamine (pH 7.4) in 50% RL. The two groups were then resuscitated with four times the maximum hemorrhage volume over a period of 60 minutes with RL (T-H) or RL containing 10 mM glucosamine (G-T-H). Sham-operated animals underwent the same surgical procedure but were neither bled nor resuscitated. Two hours post-resuscitation, a catheter was inserted into the left ventricle via the right carotid artery. Organ blood flows were determined using radioactive microspheres. Cardiac function and blood parameters were also assessed. The data for these experiments are shown in Tables 1 and 2 (values are mean ±standard error of the mean).

isolated rat hearts = experiment: isolated heart model of ischemia and reperfusion; conditions: 5 mM, added 10 minutes prior to ischemia and in reperfusion buffer; 10 min global ischemia, 15 min reperfusion; n=3
Experimental: To determine whether glucosamine treatment was protective in an isolated heart model of ischemia and reperfusion, isolated rat hearts (n=3) were assessed for protection against damage utilizing an ischemia/reperfusion protocol that included 10 minutes of global ischemia followed by 15 minutes of reperfusion with oxygenated buffer. In the experimental group, 5 mM glucosamine was added to the buffer 10 minutes prior to the onset of ischemia and was also included in the reperfusion buffer.

O-GlcNAc on proteins = experiment: CTD110 immunoblot of O-GlcNAc-containing proteins in isolated heart extracts; conditions: ten-minute perfusion, 5 mM, isolated hearts
Experimental: FIG. 8 is a photograph of a CTD110 immunoblot performed on extracts from isolated hearts following a 10-minute perfusion with buffer (control) or buffer containing 5 mM glucosamine (GlcNH2). The differences in the O-GlcNAc-containing protein pattern between the control and the GlcNH2 treated hearts are indicated by arrows.
In the experiments above with isolated hearts, glucosamine was protective after only a ten minute pre-incubation. While not wishing to be bound by theory, the mechanism believed to be responsible for the protection is an increase in concentration of an intracellular metabolite of the HBP, which results in an increase in protein-associated O-GlcNAc. […] Increases at ten minutes were 47%. With respect to the second point, experiments were performed in which a monoclonal antibody specific for O-GlcNAc on proteins (CTD110) (Corner, et al, Anal Biochem (2001) 293(2):169-177) was used in an immunoblotting protocol. The specificity of this antibody for O-GlcNAc-containing epitopes is verified in each experiment by the inclusion of 10 mM GlcNAc along with the CTD110 antibody on parallel samples. These samples show no staining (data not shown). CTD110 immunoblots were performed on extracts from isolated hearts following a ten-minute perfusion with buffer or buffer containing 5 mM glucosamine (FIG. 8). […]

[2] = rat, G-T-H (n = 3), 2 h after T-H, glucosamine before hemorrhage and in resuscitation, mean ± SEM
[3] = rat, G-T-H, 2 h after T-H and resuscitation, Example 1, mean ± SEM

N[C@H]1C(O)O[C@H](CO)[C@@H](O)[C@@H]1O (stereo partly shown) [glucosamine]
Hepatic blood flow, change ([1]; G-T-H group, Example 1): improved | Total peripheral resistance, change ([1]; G-T-H group, Example 1): decreased | +dp/dt relative to the T-H group ([1]; G-T-H vs T-H group, Example 1): markedly improved | Cardiac output improvement over the T-H group ([1]; G-T-H vs T-H group, Example 1): more than two-fold | oxygen consumption relative to the T-H group ([1]; G-T-H vs T-H group, Example 1): more than doubled | oxygen delivery relative to the T-H group ([1]; G-T-H vs T-H group, Example 1): more than doubled | −dp/dt relative to the T-H group ([1]; G-T-H vs T-H group, Example 1): markedly improved | Cardiac output improvement over the sham group ([1]; G-T-H vs sham group, Example 1): more than 50% | +dp/dt [1, 2]: 14,400 ± 900 mm Hg/sec | Cardiac Output [1, 2]: 40.5 ± 0.4 ml/min 100 g body wt | Heart Rate [1, 2]: 371 ± 15 beat/minute | Mean Arterial Pressure [1, 2]: 104 ± 3 mm Hg | Oxygen Consumption [1, 2]: 1.32 ± 0.15 ml/min 100 g body wt | Oxygen Delivery [1, 2]: 3.3 ± 0.1 ml/min 100 g body wt | Oxygen Extraction [1, 2]: 42.0 ± 5.4% | Stroke volume [1, 2]: 109.7 ± 5.7 μl/beat/100 g body wt | Total Peripheral Resistance [1, 2]: 2.58 ± 0.10 mm Hg/ml/min/100 g body wt | −dp/dt [1, 2]: 8,700 ± 600 mm Hg/sec | Regional Blood Flow: Brain [1, 3]: 103 ± 11 ml/min/100 g tissue | Regional Blood Flow: Cardiac [1, 3]: 1,320 ± 170 ml/min/100 g tissue | Regional Blood Flow: Cecum [1, 3]: 118 ± 29 ml/min/100 g tissue | Regional Blood Flow: Gastric [1, 3]: 78.3 ± 5.1 ml/min/100 g tissue | Regional Blood Flow: Hepatic Artery [1, 3]: 18.5 ± 6.0 ml/min/100 g tissue | Regional Blood Flow: Large Intestine [1, 3]: 101 ± 18 ml/min/100 g tissue | Regional Blood Flow: Lung [1, 3]: 74.2 ± 18.1 ml/min/100 g tissue | Regional Blood Flow: Mesenteric [1, 3]: 29.2 ± 5.0 ml/min/100 g tissue | Regional Blood Flow: Muscle [1, 3]: 6.45 ± 1.69 ml/min/100 g tissue | Regional Blood Flow: Pancreatic [1, 3]: 56 ± 4 ml/min/100 g tissue | Regional Blood Flow: Portal Vein [1, 3]: 187 ± 14 ml/min/100 g tissue | Regional Blood Flow: Renal [1, 3]: 374 ± 13 ml/min/100 g tissue | Regional Blood Flow: Skin [1, 3]: 53.9 ± 5.7 ml/min/100 g tissue | Regional Blood Flow: Small Intestine [1, 3]: 240 ± 24 ml/min/100 g tissue | Regional Blood Flow: Splenic [1, 3]: 46 ± 20 ml/min/100 g tissue | Regional Blood Flow: Thymus [1, 3]: 47.8 ± 10.5 ml/min/100 g tissue | Regional Blood Flow: Total Hepatic [1, 3]: 202 ± 20 ml/min/100 g tissue | protection from ischemia/reperfusion as assessed by LVDP and EDP (isolated rat hearts): significant protection | O-GlcNAc-containing protein pattern vs buffer (O-GlcNAc on proteins): Clear differences
